Reference: patent US9777020B2, “Furo-3-carboxamide derivatives and methods of use” (AbbVie Inc., priority 2014, dated 2017)

target: TrkA (Homo sapiens (Human), UniProt P04629); assay: TrkA kinase HTRF enzyme inhibition assay; assay type: biochemical; conditions: TrkA pre-incubated with 200 μM ATP
Method: TrkA enzyme was obtained from Invitrogen (as catalog numbers PV3144, PV3616, and PV3617, respectively). Enzyme activity was measured in an HTRF® (homogeneous time resolved fluorescence) assay, which detects enzymatic phosphorylation of a biotinylated synthetic peptide substrate (an LCK peptide analog, biotin-ahx-[…], from Genemed Synthesis). Phosphorylation is assessed by HTRF® in the presence of an anti-phosphotyrosine antibody conjugated to Eu^3+ cryptate (Cisbio) as donor fluorophore, and streptavidin conjugated to allophycocyanin (ProZyme) as acceptor fluorophore. The HTRF® signal was detected at two different wavelengths (620 nm and 665 nm) which were used to calculate the fluorescence ratio.
TrkA enzyme was titrated to a concentration optimized to ensure accurate measurement of the initial reaction rate. To allow the TrkA enzyme to undergo activation and auto-phosphorylation, a 20 minute pre-incubation with ATP was carried out (at twice the final targeted enzyme and ATP concentration) prior to addition of test compound and the peptide substrate.
TrkA in vitro assays were performed by pre-incubating TrkA (2-10 nM) with ATP (200 μM) for 20 minutes at ambient temperature in 50 mM HEPES pH 7.4, 10 mM MgCl2, 2 mM MnCl2, 100 μM Na3VO4, 1 mM dithiothreitol, 0.01% BSA (bovine serum albumin). Then, to the activated Trk enzyme mixture was added the test compound in 2% dimethyl sulfoxide. After 10 minutes, the peptide substrate (125 nM) was added. After 1 hour, enzyme reactions were terminated by addition of equal reaction volumes of detection/stop reagent (containing 0.2 μg/mL anti-phosphotyrosine monoclonal antibody labeled with europium from Cisbio (catalog#PT66-K), and 4 μg/mL PhycoLink® Streptavidin-Allophycocyanin conjugate from ProZyme (catalog#PJ25S) in 60 mM EDTA in 40 mM HEPES pH 7.4, 480 mM KF, 0.01% Tween® 20 and 0.1% BSA bovine serum albumin) Reaction plates were stored at 4° C. overnight before reading the fluorescence ratio signal on a PerkinElmer EnVision™ fluorescence detector. Individual reaction wells were stopped at time points to obtain reaction rates. The test inhibitor compounds were assayed in duplicate, at half-log serial dilutions over a range of concentrations (e.g. starting at 50 μM or 5 μM as the high compound concentration). The percent Trk enzyme inhibition was calculated from the initial rates of the inhibited reactions relative to the uninhibited control. IC50 values were calculated by fitting the inhibition percent to the concentration of inhibitor [I] in the assay in equation 1 below, to solve for the IC50. Inhibition %=100[I]/([I]+[IC50]) equation 1

Sequence of TrkA (P04629 33-796): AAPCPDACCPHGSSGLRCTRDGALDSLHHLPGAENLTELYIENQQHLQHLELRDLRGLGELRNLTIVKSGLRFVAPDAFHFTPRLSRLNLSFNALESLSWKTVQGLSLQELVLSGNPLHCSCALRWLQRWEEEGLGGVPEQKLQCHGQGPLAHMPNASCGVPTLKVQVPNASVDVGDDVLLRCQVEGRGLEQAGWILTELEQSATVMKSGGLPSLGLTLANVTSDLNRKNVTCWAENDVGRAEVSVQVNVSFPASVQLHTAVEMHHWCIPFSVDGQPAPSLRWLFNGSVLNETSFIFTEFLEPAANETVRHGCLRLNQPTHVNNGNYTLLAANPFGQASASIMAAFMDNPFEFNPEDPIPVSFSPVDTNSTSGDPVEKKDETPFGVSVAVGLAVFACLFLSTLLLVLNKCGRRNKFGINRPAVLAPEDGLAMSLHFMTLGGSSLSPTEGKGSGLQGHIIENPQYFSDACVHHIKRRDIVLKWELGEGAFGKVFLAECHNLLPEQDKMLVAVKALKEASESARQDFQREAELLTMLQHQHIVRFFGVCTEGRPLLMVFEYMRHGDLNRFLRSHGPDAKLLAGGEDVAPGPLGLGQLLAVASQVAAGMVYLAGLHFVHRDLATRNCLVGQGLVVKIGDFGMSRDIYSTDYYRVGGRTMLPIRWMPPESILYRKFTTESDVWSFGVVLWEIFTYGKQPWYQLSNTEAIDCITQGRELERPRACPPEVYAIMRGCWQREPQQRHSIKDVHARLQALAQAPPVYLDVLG

| SMILES | IC50 [nM] |
| --- | --- |
| Cn1cc2cc(NC(=O)c3coc4c3C(=O)NCC4)ccc2n1 [Example 1, N-(2-methyl-2H-indazol-5-yl)-4-oxo-4,5,6,7-tetrahydrofuro[3,2-c]pyridine-3-carboxamide] | 44.2 |
| O=C(Nc1ccc(N2CCOCC2)cc1)c1coc2c1C(=O)NCC2 [Example 3, N-[4-(morpholin-4-yl)phenyl]-4-oxo-4,5,6,7-tetrahydrofuro[3,2-c]pyridine-3-carboxamide] | 173 |
| Cc1ccc(NC(=O)c2coc3c2C(=O)N(C)CC3)cc1 [Example 4, 5-methyl-N-(4-methylphenyl)-4-oxo-4,5,6,7-tetrahydrofuro[3,2-c]pyridine-3-carboxamide] | 375 |
| COc1cc(N2CCN(C(=O)OC(C)(C)C)CC2)ccc1NC(=O)c1coc2c1C(=O)NCC2 [Example 5, tert-butyl 4-(3-methoxy-4-{[(4-oxo-4,5,6,7-tetrahydrofuro[3,2-c]pyridin-3-yl)carbonyl]amino}phenyl)piperazine-1-carboxylate] | 54.4 |
| COc1nc(N2CCN(C)CC2)ccc1NC(=O)c1coc2c1C(=O)NCCC2 [Example 7, N-[2-methoxy-6-(4-methylpiperazin-1-yl)pyridin-3-yl]-4-oxo-5,6,7,8-tetrahydro-4H-furo[3,2-c]azepine-3-carboxamide] | 212 |
| CCOc1nc(N2CCN(C(C)=O)CC2)ccc1NC(=O)c1coc2c1C(=O)N(CCOCc1ccccc1)CC2 [Example 8, N-[6-(4-acetylpiperazin-1-yl)-2-ethoxypyridin-3-yl]-5-[2-(benzyloxy)ethyl]-4-oxo-4,5,6,7-tetrahydrofuro[3,2-c]pyridine-3-carboxamide] | 69.5 |
| CC(=O)N1CCN(c2ccc(NC(=O)c3coc4c3C(=O)NCC4)cc2)CC1 [Example 10, N-[4-(4-acetylpiperazin-1-yl)phenyl]-4-oxo-4,5,6,7-tetrahydrofuro[3,2-c]pyridine-3-carboxamide] | 55.9 |
| O=C(Nc1ccc2[nH]cnc2c1)c1coc2c1C(=O)NCC2 [Example 12, N-(1H-benzimidazol-5-yl)-4-oxo-4,5,6,7-tetrahydrofuro[3,2-c]pyridine-3-carboxamide] | 99.6 |
| NC(=O)c1ccc(NC(=O)c2coc3c2C(=O)NCC3)cc1 [Example 13, N-(4-carbamoylphenyl)-4-oxo-4,5,6,7-tetrahydrofuro[3,2-c]pyridine-3-carboxamide] | 166 |
| O=C(Nc1ccc2[nH]ncc2c1)c1coc2c1C(=O)NCC2 [Example 14, N-(1H-indazol-5-yl)-4-oxo-4,5,6,7-tetrahydrofuro[3,2-c]pyridine-3-carboxamide] | 111 |
| CN1CCN(c2ccc(NC(=O)c3coc4c3C(=O)NCC4)cc2)CC1 [Example 17, N-[4-(4-methylpiperazin-1-yl)phenyl]-4-oxo-4,5,6,7-tetrahydrofuro[3,2-c]pyridine-3-carboxamide] | 81.4 |
| COCCOc1nc(N2CCN(C(C)=O)CC2)ccc1NC(=O)c1coc2c1C(=O)NCC2 [Example 20, N-[6-(4-acetylpiperazin-1-yl)-2-(2-methoxyethoxyl)pyridin-3-yl]-4-oxo-4,5,6,7-tetrahydrofuro[3,2-c]pyridine-3-carboxamide] | 25.9 |
| CC(=O)N1CCN(c2ccc(NC(=O)c3coc4c3C(=O)NCC4)c(OC3COC3)n2)CC1 [Example 21, N-[6-(4-acetylpiperazin-1-yl)-2-(oxetan-3-yloxy)pyridin-3-yl]-4-oxo-4,5,6,7-tetrahydrofuro[3,2-c]pyridine-3-carboxamide] | 21.6 |
| CN1CCc2occ(C(=O)Nc3ccc4c(cnn4C)c3)c2C1=O [Example 24, 5-methyl-N-(1-methyl-1H-indazol-5-yl)-4-oxo-4,5,6,7-tetrahydrofuro[3,2-c]pyridine-3-carboxamide] | 189 |
| CN1CCc2occ(C(=O)Nc3ccc(N4CCOCC4)cc3)c2C1=O [Example 25, 5-methyl-N-[4-(morpholin-4-yl)phenyl]-4-oxo-4,5,6,7-tetrahydrofuro[3,2-c]pyridine-3-carboxamide] | 112 |
| CN1CCc2occ(C(=O)Nc3ccc4[nH]cnc4c3)c2C1=O [Example 27, N-(1H-benzimidazol-5-yl)-5-methyl-4-oxo-4,5,6,7-tetrahydrofuro[3,2-c]pyridine-3-carboxamide] | 428 |
| Cc1nc2ccc(NC(=O)c3coc4c3C(=O)N(C)CC4)cc2s1 [Example 29, 5-methyl-N-(2-methyl-1,3-benzothiazol-6-yl)-4-oxo-4,5,6,7-tetrahydrofuro[3,2-c]pyridine-3-carboxamide] | 169 |
| Cc1ccc(NC(=O)c2coc3c2C(=O)NCC3)cc1 [Example 30, N-(4-methylphenyl)-4-oxo-4,5,6,7-tetrahydrofuro[3,2-c]pyridine-3-carboxamide] | 521 |
| O=C(Nc1ccc(O)cc1)c1coc2c1C(=O)NCC2 [Example 31, N-(4-hydroxyphenyl)-4-oxo-4,5,6,7-tetrahydrofuro[3,2-c]pyridine-3-carboxamide] | 390 |
| COc1ccc(NC(=O)c2coc3c2C(=O)NCC3)c(OC)n1 [Example 35, N-(2,6-dimethoxypyridin-3-yl)-4-oxo-4,5,6,7-tetrahydrofuro[3,2-c]pyridine-3-carboxamide] | 117 |
| O=C(Nc1cnccn1)c1coc2c1C(=O)NCC2 [Example 37, 4-oxo-N-(pyrazin-2-yl)-4,5,6,7-tetrahydrofuro[3,2-c]pyridine-3-carboxamide] | 3210 |
| Cc1cc(NC(=O)c2coc3c2C(=O)NCC3)no1 [Example 38, N-(5-methyl-1,2-oxazol-3-yl)-4-oxo-4,5,6,7-tetrahydrofuro[3,2-c]pyridine-3-carboxamide] | 1720 |

Continued by falling IC50, values first:

| IC50 [nM] | SMILES |
| --- | --- |
| 8010 | O=C(Nc1ccon1)c1coc2c1C(=O)NCC2 [Example 36, N-(1,2-oxazol-3-yl)-4-oxo-4,5,6,7-tetrahydrofuro[3,2-c]pyridine-3-carboxamide] |
| 910 | O=C(Nc1ccc2cn[nH]c2c1)c1coc2c1C(=O)NCC2 [Example 34, N-(1H-indazol-6-yl)-4-oxo-4,5,6,7-tetrahydrofuro[3,2-c]pyridine-3-carboxamide] |
| 554 | CC(=O)Nc1ccc(NC(=O)c2coc3c2C(=O)NCC3)cc1 [Example 32, N-(4-acetamidophenyl)-4-oxo-4,5,6,7-tetrahydrofuro[3,2-c]pyridine-3-carboxamide] |
| 279 | CN1CCN(c2ccc(NC(=O)c3coc4c3C(=O)NCC4)nc2)CC1 [Example 16, N-[5-(4-methylpiperazin-1-yl)pyridin-2-yl]-4-oxo-4,5,6,7-tetrahydrofuro[3,2-c]pyridine-3-carboxamide] |
| 257 | CN1CCc2occ(C(=O)Nc3ccc4[nH]ncc4c3)c2C1=O [Example 23, N-(1H-indazol-5-yl)-5-methyl-4-oxo-4,5,6,7-tetrahydrofuro[3,2-c]pyridine-3-carboxamide] |
| 202 | CN1CCc2occ(C(=O)Nc3ccc(C(N)=O)cc3)c2C1=O [Example 26, N-(4-carbamoylphenyl)-5-methyl-4-oxo-4,5,6,7-tetrahydrofuro[3,2-c]pyridine-3-carboxamide] |
| 200 | CN1CCN(c2ccc(NC(=O)c3coc4c3C(=O)N(C)CC4)cc2)CC1 [Example 22, 5-methyl-N-[4-(4-methylpiperazin-1-yl)phenyl]-4-oxo-4,5,6,7-tetrahydrofuro[3,2-c]pyridine-3-carboxamide] |
| 111 | O=C(Nc1ccc2ncccc2c1)c1coc2c1C(=O)NCC2 [Example 33, 4-oxo-N-(quinolin-6-yl)-4,5,6,7-tetrahydrofuro[3,2-c]pyridine-3-carboxamide] |
| 110 | CC(=O)N1CCN(c2ccc(NC(=O)c3coc4c3C(=O)N(C)CC4)cc2)CC1 [Example 28, N-[4-(4-acetylpiperazin-1-yl)phenyl]-5-methyl-4-oxo-4,5,6,7-tetrahydrofuro[3,2-c]pyridine-3-carboxamide] |
| 64 | Cn1ncc2cc(NC(=O)c3coc4c3C(=O)NCC4)ccc21 [Example 11, N-(1-methyl-1H-indazol-5-yl)-4-oxo-4,5,6,7-tetrahydrofuro[3,2-c]pyridine-3-carboxamide] |
| 59.8 | COc1cc(N2CCN(C(C)=O)CC2)ccc1NC(=O)c1coc2c1C(=O)NCC2 [Example 18, N-[4-(4-acetylpiperazin-1-yl)-2-methoxyphenyl]-4-oxo-4,5,6,7-tetrahydrofuro[3,2-c]pyridine-3-carboxamide] |
| 16.3 | CCOc1nc(N2CCN(C(C)=O)CC2)ccc1NC(=O)c1coc2c1C(=O)NCC2 [Example 19, N-[6-(4-acetylpiperazin-1-yl)-2-ethoxypyridin-3-yl]-4-oxo-4,5,6,7-tetrahydrofuro[3,2-c]pyridine-3-carboxamide] |
